Results: ChEMBL document CHEMBL6109146, “Discovery of New Pyrazolone Carbothioamide Derivatives as Potent Antifungal Agents for the Treatment of Candidiasis and Cryptococcosis” (J Med Chem, 2025)
The source made the active and inactive calls. The calls are words filed in the database; no cut-off is given here.

Legend:
[1] = Tmax in male ICR mouse at 2 mg/kg, iv measured after 24 hrs by LC-MS/MS analysis; format: ADME, organism-based; conditions: in vivo
[2] = Volume of distribution at steady state in male ICR mouse at 2 mg/kg, iv measured after 24 hrs by LC-MS/MS analysis; format: ADME, organism-based; conditions: in vivo, read-out: Vdss
[3] = Tmax in male ICR mouse at 20 mg/kg, po measured after 24 hrs by LC-MS/MS analysis; format: ADME, organism-based; conditions: in vivo
[4] = test system: Cryptococcus neoformans; experiment: Fungicidal activity against Cryptococcus neoformans H99 at 32 microg/ml incubated for 72 hrs by time-kill kinetics analysis; format: functional, organism-based; conditions: dose 32.0 µg/ml
[5] = test system: Nakaseomyces glabratus; experiment: Inhibition of biofilm formation in Candida glabrata 0161 at 2 to 32 microg/ml incubated for 24 hrs by XTT reagent based assay; format: functional, organism-based; conditions: dose 2-32 µg/ml
[6] = test system: Cryptococcus neoformans; experiment: Inhibition of matured biofilm in Cryptococcus neoformans H99 at 2 to 32 microg/ml incubated for 24 hrs by XTT reagent based assay; format: functional, organism-based; conditions: dose 2-32 µg/ml
[7] = test system: Cryptococcus neoformans; experiment: Inhibition of capsule formation in Cryptococcus neoformans H99 at 4 microg/ml incubated for 24 hrs by light microscopic analysis; format: functional, organism-based; conditions: dose 4.0 µg/ml
[8] = test system: Cryptococcus neoformans; experiment: Induction of morphological changes in Cryptococcus neoformans H99 assessed as mitochondrial lysis at 4 microg/ml incubated for 8 hrs by transmission electron microscopic analysis; format: functional, organism-based; conditions: dose 4.0 µg/ml
[9] = test system: Cryptococcus neoformans; experiment: Induction of ROS accumulation in Cryptococcus neoformans H99 assessed as increase in intracellular ROS level by measuring intense green fluorescence at 4 microg/ml incubated for 24 hrs by DCFH-DA probe based fluorescence microscopic analysis; format: functional, organism-based; conditions: dose 4.0 µg/ml
[10] = test system: Cryptococcus neoformans; experiment: Upregulation of CAT1 gene expression in Cryptococcus neoformans H99 at 4 microg/ml incubated for 8 hrs by qRT-PCR analysis; format: functional; conditions: dose 4.0 µg/ml
[11] = test system: Cryptococcus neoformans; experiment: Upregulation of GPX1 gene expression in Cryptococcus neoformans H99 at 4 microg/ml incubated for 8 hrs by qRT-PCR analysis; format: functional; conditions: dose 4.0 µg/ml
[12] = test system: Nakaseomyces glabratus; experiment: Upregulation of GPX1 gene expression in Candida glabrata 0161 incubated for 8 hrs by qRT-PCR analysis; format: functional
[13] = test system: Nakaseomyces glabratus; experiment: Upregulation of TRR1 gene expression in Candida glabrata 0161 incubated for 8 hrs by qRT-PCR analysis; format: functional
[14] = test system: Cryptococcus neoformans; experiment: Antifungal activity against Cryptococcus neoformans H99 assessed as inhibition of fungal growth in presence of 1 to 10 microg/ml Fe(III) ion; format: functional, organism-based
[15] = test system: Nakaseomyces glabratus; experiment: Antifungal activity against Candida glabrata 0161 assessed as inhibition of fungal growth in presence of Fe(III) ion; format: functional, organism-based
[16] = test system: Nakaseomyces glabratus; experiment: Antifungal activity against Candida glabrata 0161 assessed as inhibition of fungal growth in presence of 10% serum containing transferrin-bound ferric iron and free iron; format: functional, organism-based
[17] = Clearance in male ICR mouse at 2 mg/kg, iv measured after 24 hrs by LC-MS/MS analysis; format: ADME, organism-based; conditions: in vivo

Tmax [1]: 4.98 min | Vd [2]: 1.47 L/kg | Tmax [3]: 15 min | clearance [17]: 16.2 mL/min/kg
Compound: Nc1cc(=O)n(C(=S)Nc2ccc(C3CCCCC3)cc2)[nH]1
Activity [4]: inactive | inhibition [5]: Moderate_effect | inhibition [6]: Active; Better Inhibitory Effect Observed Under High Concentration | inhibition [7]: Active | Activity [8]: Active | Activity [9]: Active | Activity [10]: Active | Activity [11]: Active | Activity [12]: Active | Activity [13]: Active | Activity [14]: inactive | Activity [15]: inactive | Activity [16]: inactive
